“Also recorded” adds a separate entry of the source.
Key:
AsPC-1 cells [1] = test: Uptake of BPA and dipeptides in PEPT1 high expressing cells; type: cell-based, human; conditions: PEPT1 high expressing AsPC1 cells
Protocol: The indicated cancer cell line (A) or FaDu cells (B) were harvested from culture and washed twice with PBS. Cell lines were adjusted to 2 million cells/ml in Hanks Balanced Salt Solution (HBSS). BPA or dipeptide boron compounds were added to cells at the final concentration of 2.5 mM in HBSS and the treated cells were incubated at 37° C. 5% CO2 for 2 hrs with shaking. The cells were collected by centrifugation; washed with cold PBS twice and reconstituted in 1 ml of cold PBS. Then, 50 µl of cell suspension was removed, pelleted, and lysed using RIPA buffer and the protein concentration was determined using BCA assay. The remaining 950 µl was used for boron compounds uptake measurements using ICP-OES.
To this end, 0.5 mL of concentrated nitric acid was added to each cell pellet in a 15 mL conical tube. The tubes were capped and placed in an oven set at 80° C. for 3 hours. […] The boron content in each sample was then measured on an Agilent 5110 ICP-OES using an Agilent SPS4 Autosampler for sample introduction.
The data was analyzed using Agilent’s ICP Expert Software, version 7.4.2.10790. Boron was measured axially at the 249.772 nm wavelength and the internal standard Beryllium was measured axially at the 313.042 nm wavelength. […] Once determined, the boron measurement for each sample was normalized to protein content and final boron uptake results were expressed as ng boron/mg protein. […]

FaDu cells = test: Uptake inhibition by PEPT1 competitive inhibitor Gly-SAR; type: cell-based, human
Protocol: (§1) In this experiment, uptake of BPA and dipeptide His-BPA (0.8 mM of each) was carried out in FaDu and ASPC-1 in the presence and absence of the indicated concentrations of PEPT1 dipeptide transporter competitive inhibitor Gly-SAR. Normalized boron uptake was determined as in FIG. 15.

AsPC-1 cells [2] = test: as above; type: cell-based, human; conditions: 0.8 mM test compound, with and without Gly-SAR
Protocol: as §1

CT26 xenografts [3] = test: BNCT tumor regression study, 6 minute irradiation; type: in vivo, BALB/c mice; conditions: 900 mg/kg, 6 minutes irradiation
Protocol: In this experiment, CT26 xenografts in BALB/c mice were dosed with 400 mg/kg of BPA or 900 mg/kg of His-BPA or BPA-BPA. Following one (1) hour treatment time, mice were irradiated for 6 minutes at the Kyoto University Research Reactor (Kyoto, Japan) 1 set at 5 megawatts. Data are the means ± SD of 3 mice per treatment group. Tumors were measured for growth out to 36 days and examined for tumor presence at 40 days. BPA and control groups were sacrificed at day 18 due to excessive tumor growth.

Solubility = type: physicochemical
[4] = tested on: FaDu, Detroit-562, MeWo, HCC-1954, A549 and AsPC-1 human cancer xenograft models; test: Dose escalation of boron delivery, all tested xenograft models; type: in vivo, CB17 SCID mice; conditions: 1000 mg/kg, 120 minutes
Protocol: Tumors were harvested 120 minutes following treatment and boron content determined by ICP-OES. Data are the means ± SD of 5 mice per treatment group.

FaDu subcutaneous tumors = test: Biodistribution of His-BPA, FaDu tumors in vivo; set-up: species or system female CB17 SCID mice; conditions: His-BPA 4X higher dose than BPA-F
Protocol: In this experiment, biodistribution of His-BPA was evaluated in vivo using the following protocols. All animal studies were carried out following the “Guide for the Care and Use the Laboratory Animals,” 8th Ed. and Animal Welfare Act (USDA). Human hypopharyngeal squamous cell carcinoma FaDu cells were maintained in DMEM, supplemented with L-glutamine and 10% FBS.
Subcutaneous (s.c.) tumors were generated by injection of 2.5 × 10^6 cancer cells mixed at a 1:1 dilution with Matrigel (Corning Life Sciences) in the right flank of female CB17 SCID mice. Tumor sizes were determined by caliper measurements, and the tumor volume was calculated as width^2×Length/2, wherein width is the smallest dimension and length is the largest dimension. Tumors were allowed to grow untreated until they reached an approximate volume of 300 mm^3. At that point, animals were randomized and allocated to each treatment group based on tumor volume at the time of treatment initiation to ensure similar mean tumor size and variation in each group. Each group received a single dose of BPA at […] or a test article at […] via intravenous tail vein injection. […]
Furthermore, all compounds tested, with the exception of BPA were prepared as 80-100 mg/mL stocks. […] The digested tissues were analyzed by ICP OES to determine the boron concentration.

CT26 xenografts [5] = test: BNCT study, 12 or 6 minute irradiation at 5 MW; type: in vivo, BALB/c mice; conditions: 800 mg/kg, 12 minutes irradiation at 5 MW, monitored to 22 days
Protocol: Following one (1) hour of treatment time, mice were irradiated for either 12 minutes (33(A)) or 6 minutes (33(B)) at the Kyoto University Research Reactor (Kyoto, Japan) 1 set at 5 megawatts. Data are the means ± SD of 3 mice per treatment group. Tumors were measured for growth out to 22 days.

Structure (SMILES): N[C@@H](Cc1c[nH]cn1)C(=O)N[C@@H](Cc1ccc(B(O)O)cc1)C(=O)O [His-BPA, Histidine-BPA]
- boron uptake compared to BPA (AsPC-1 cells [1]): to a higher level than BPA
- boron signal in PEPT1 negative FaDu cells (FaDu cells; 0.8 mM): does deliver a boron signal
- effect of Gly-SAR on boron uptake (FaDu cells; 0.8 mM test compound, with and without Gly-SAR): no effect
- effect of Gly-SAR on boron uptake (AsPC-1 cells [2]): dose dependent inhibitory effect
- visual inspection and histological examination of the tumor area (CT26 xenografts [3]; one treated mouse): lack of tumor tissue and only scar tissue at the original tumor site
- tumor growth after BNCT (CT26 xenografts [3]; sustained out to 36 days): significant tumor regression
- solubility (in words, compared to BPA) (Solubility): high solubility; also recorded: improved solubility
- tumor boron compared to BPA at 200 mg/kg [4]: higher boron levels
- boron in the kidneys and pancreas compared to BPA-F (FaDu subcutaneous tumors): Significantly higher amounts of boron
- tumor growth after BNCT (CT26 xenografts [5]): significant and similar growth inhibition, even regression

Source: patent US20230357312A1, “Borylated Di-Peptide Amino Acid compositions for use in Boron Neutron Capture Therapy and methods thereof” (TAE Life Sciences, priority 2021, published 2023)
